In patent US6204289A, “Cembranoid inhibitors of nicotinic acetylcholine receptors” (priority 1998, dated 2001):

Test system: peripheral and neuronal AchRs
Test: Inhibition of peripheral and neuronal AchRs (summary statement)
Description: Cembranoids are cyclic diterpenoids naturally present in many plants and invertebrate animals. We discovered that cembranoids inhibit both peripheral and neuronal AchRs at concentrations ranging from 10^-15 molar to 10^-4 molar; cembranoids also increase the rate of receptor desensitization. Seventeen different cembranoid analogs were tested. There are two main differences between previously known AchR inhibitors and these new cembranoid inhibitors. […] Second, cembranoids are present in tobacco leaves, and therefore potentially have an effect on nicotine action in the brains of cigarette smokers. Nicotine-induced desensitization of neuronal acetylcholine receptors is related to behavioral tolerance or addiction to nicotine (6); since cembranoids increase receptor desensitization, they are likely to increase tobacco addictive properties. Thus, by extracting the cembranoids from tobacco, this could produce less addictive cigarettes (or any tobacco related product). On the other hand, addition of cembranoids to tobacco could possibly increase its addictive properties. In addition, cembranoids displace general anesthetics from the muscle-type AchR, and so they could ameliorate the undesirable side-effects of anesthesia in patients with Myasthenia gravis.
We discovered that cembranoids isolated from gorgonian-corals inhibit both peripheral and neuronal AchRs.

Compound | potency relative to any previously known AchR inhibitors (factor)
C=C(C(=O)O)C1CC/C(C)=C/CC/C(C)=C/CCC2(C)OC2C1 (centres unmarked) [pseudoplexauric acid] | at least 1000
eupalmerin acetate | at least 1000
